Measured values from the supplement of paper PMC10307832.

Key:
Assay in all cases: relative viability (nuclei count vs DMSO), 5 days (fraction); higher = more cells survive
NCI-H1975 = test system: NCI-H1975
How it was run: (§1)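 One day after seeding in 1536-well plates, lung cancer cell lines were dosed by pin tool. Dosing was either single-drug or a fixed anchor-drug dose plus five library-drug doses (not always all listed) in √10 steps. After 5 days, nuclei were stained in one fix-and-stain step and counted on 4× images, and relative viability is the nuclei count of treated wells over that of vehicle wells, given as the median of duplicate plates.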

LOU-NH91 = test system: LOU-NH91
How it was run: as §1

CAL-12T = test system: CAL-12T
How it was run: as §1

NCI-H2342 = test system: NCI-H2342
How it was run: as §1

NCI-H2023 = test system: NCI-H2023
How it was run: as §1

BEN = test system: BEN
How it was run: as §1

NCI-H358 = test system: NCI-H358
How it was run: as §1

NCI-H1734 = test system: NCI-H1734
How it was run: as §1

LU99A = test system: LU99A
How it was run: as §1

NCI-H1651 = test system: NCI-H1651
How it was run: as §1

HCC-366 = test system: HCC-366
How it was run: as §1

NC(=O)Nc1cc(-c2cccc(F)c2)sc1C(=O)N[C@H]1CCCNC1 [AZD7762] + Cc1nc(Nc2ncc(C(=O)Nc3c(C)cccc3Cl)s2)cc(N2CCN(CCO)CC2)n1 [Dasatinib] (partner 0.075 µM) showed a relative viability (NCI-H1975; first compound 0.01 µM) of 0.339, a relative viability (NCI-H1975; first compound 0.03162 µM) of 0.347 and a relative viability (NCI-H1975; first compound 0.1 µM) of 0.42. The relative viability (NCI-H1975; first compound 0.3162 µM) was 0.305, the relative viability (NCI-H1975; first compound 1 µM) was 0.242 and the relative viability (LOU-NH91; first compound 0.01 µM) was 0.561. For the same molecule, the relative viability (LOU-NH91; first compound 0.03162 µM) was 0.596, the relative viability (LOU-NH91; first compound 0.1 µM) was 0.558 and the relative viability (LOU-NH91; first compound 0.3162 µM) was 0.517. It also gave a relative viability (LOU-NH91; first compound 1 µM) of 0.49, a relative viability (CAL-12T; first compound 0.01 µM) of 0.637 and a relative viability (CAL-12T; first compound 0.03162 µM) of 0.463. For the same molecule, the relative viability (CAL-12T; first compound 0.1 µM) was 0.47, the relative viability (CAL-12T; first compound 0.3162 µM) was 0.23 and the relative viability (CAL-12T; first compound 1 µM) was 0.0827. It also gave a relative viability (NCI-H2342; first compound 0.01 µM) of 0.326, a relative viability (NCI-H2342; first compound 0.03162 µM) of 0.344 and a relative viability (NCI-H2342; first compound 0.1 µM) of 0.33. For the same molecule, the relative viability (NCI-H2342; first compound 0.3162 µM) was 0.309, the relative viability (NCI-H2342; first compound 1 µM) was 0.31 and the relative viability (NCI-H2023; first compound 0.01 µM) was 0.513. For the same molecule, the relative viability (NCI-H2023; first compound 0.03162 µM) was 0.425, the relative viability (NCI-H2023; first compound 0.1 µM) was 0.328 and the relative viability (NCI-H2023; first compound 0.3162 µM) was 0.159. For the same molecule, the relative viability (NCI-H2023; first compound 1 µM) was 0.0942, the relative viability (BEN; first compound 0.01 µM) was 0.253 and the relative viability (BEN; first compound 0.03162 µM) was 0.297. For the same molecule, the relative viability (BEN; first compound 0.1 µM) was 0.282, the relative viability (BEN; first compound 0.3162 µM) was 0.301 and the relative viability (BEN; first compound 1 µM) was 0.328. The relative viability (NCI-H358; first compound 0.01 µM) was 0.151, the relative viability (NCI-H358; first compound 0.03162 µM) was 0.182 and the relative viability (NCI-H358; first compound 0.1 µM) was 0.188. It also gave a relative viability (NCI-H358; first compound 0.3162 µM) of 0.167, a relative viability (NCI-H358; first compound 1 µM) of 0.17 and a relative viability (NCI-H1734; first compound 0.01 µM) of 0.537. It also gave a relative viability (NCI-H1734; first compound 0.03162 µM) of 0.542, a relative viability (NCI-H1734; first compound 0.1 µM) of 0.493 and a relative viability (NCI-H1734; first compound 0.3162 µM) of 0.394. The relative viability (NCI-H1734; first compound 1 µM) was 0.35, the relative viability (LU99A; first compound 0.01 µM) was 0.551 and the relative viability (LU99A; first compound 0.03162 µM) was 0.573. It also gave a relative viability (LU99A; first compound 0.1 µM) of 0.51, a relative viability (LU99A; first compound 0.3162 µM) of 0.419 and a relative viability (LU99A; first compound 1 µM) of 0.202. The relative viability (NCI-H1651; first compound 0.01 µM) was 0.375, the relative viability (NCI-H1651; first compound 0.03162 µM) was 0.358 and the relative viability (NCI-H1651; first compound 0.1 µM) was 0.386. The relative viability (NCI-H1651; first compound 0.3162 µM) was 0.22, the relative viability (NCI-H1651; first compound 1 µM) was 0.174 and the relative viability (HCC-366; first compound 0.01 µM) was 0.707. The relative viability (HCC-366; first compound 0.03162 µM) was 0.625, the relative viability (HCC-366; first compound 0.1 µM) was 0.659 and the relative viability (HCC-366; first compound 0.3162 µM) was 0.421. For the same molecule, the relative viability (HCC-366; first compound 1 µM) was 0.177.
